Measured values taken from PubChem BioAssay AID179 (DTP/NCI, 2004).
pEC50, pIC50: −log10 of the molar value. Where “and” joins values, the source holds several entries; their conditions need not be identical. Equal entries are not always repeated. Calls of active or inactive are those of the source.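 How the source made its calls: active means compounds giving half or more protection of infected cells from virus-caused growth loss, again on retest; inactive means the rest.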 Where a SMILES comes first, the peptide text is derived from it. The star is where a group is joined. Cbz = O=C(OCc1ccccc1)*; Boc = CC(C)(C)OC(=O)*; Bn = c1ccc(C*)cc1

Test system: CEM cells HIV-1 protection, formazan growth assay
Assay: NCI AIDS Antiviral Assay
Settings: for pIC50: measured here: growth of uninfected CEM cells
Summary of the method: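 Soluble formazan readout of cell growth; CEM cells ± HIV-1; 5 drug concs. ≥50% protection → retest; ≥50% again = moderately active; reproducible 100% = confirmed active.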

SMILES | pEC50 | pIC50 | outcome
O=C(O)CCCC[n+]1ccccc1 | < 3.70 | < 3.70 | 
Cc1cc(S(=O)(=O)NC2=NC(c3ccccc3)c3cc(Cl)ccc3N2)c(S)cc1Cl (stereo not drawn) | < 3.70 | < 3.70 | 
CC(=O)[C@H]1CCC2[C@@H]3CC=C4C[C@@H](OC5OC(COS(=O)(=O)O)C(O)C(O)C5O)CC[C@]4(C)C3CC[C@@]21C (stereo partly drawn) | < 4.42 | < 4.42 | 
Nc1cc(Cl)ccc1SSc1ccc(Cl)cc1N | < 3.70 | 4.92 | 
CCOC(=O)C1=C(OC(OCC)C(CC)[Se]c2ccccc2)CCCC1 (stereo not drawn) | < 4.63 | < 4.63 | 
O=S1C(=c2ccc(=C3Sc4ccccc4S3)cc2)Sc2ccccc21 (stereo not drawn) |  |  | inactive
COC(=O)C(Cc1ccccc1)NC(=O)Cn1ccnc1[N+](=O)[O-] (stereo not drawn) | < 3.12 | 3.88 | 
O=C(O)c1ccccc1-n1nc(C(=O)O)c(N=Nc2ccc(/C=C/c3ccc(N=Nc4c(C(=O)O)nn(-c5ccccc5C(=O)O)c4O)cc3S(=O)(=O)O)c(S(=O)(=O)O)c2)c1O | < 6.01 | < 6.01 | 
CC1=CC=CC(C)(C)CC1(O[Si](C)(C)C)C(F)(F)F (stereo not drawn) | < 3.70 | 3.83 | 
CN(C)C=O.CN(C)C=O.CN1C(C(=O)Nc2ccccn2)=C([O-])c2ccccc2S1(=O)=O.CN1C(C(=O)Nc2ccccn2)=C([O-])c2ccccc2S1(=O)=O.[Cu+2] |  |  | inactive
O=C(Nc1ccccn1)NC1CCCCC1 | < 3.70 | 3.71 | 
C[C@H](CCCN1CCN(C)CC1)[C@H]1CC[C@H]2[C@@H]3CC[C@@H]4C[C@H](O)CC[C@]4(C)[C@H]3CC[C@]12C | < 4.30 | 5.51 | 
CC(=O)OCc1c2ccccc2c(C)c2c1cc(F)c1ccccc12 |  |  | inactive
Cc1nc2c(ccc3[nH]c4ccccc4c32)s1 |  |  | inactive
Clc1ccc(CN2COc3c(ccc4cccnc34)C2)cc1 | < 3.70 | 5.74 | 
O=C(NCCCl)Nc1ccccn1 | < 3.70 | < 3.70 | 
NC(CNC(=O)CBr)C(=O)O (stereo not drawn) | < 3.09 | 3.81 | 
O=C1NN2CCN=C2c2cnccc21 | < 2.88 | < 2.88 | 
CC[C@@H](C)C(=O)O[C@H]1[C@H](O)[C@H]2[C@@H](CN3C[C@@H](C)CC[C@H]3[C@@]2(C)O)[C@@H]2CC34O[C@]5(O)[C@@H](OC(=O)[C@@](C)(O)CC)CC[C@@]3(C)[C@@H]5[C@@H](OC(C)=O)[C@@H](OC(C)=O)[C@H]4[C@@]21O | < 3.70 | < 3.70 | 
OC(CN(Cc1nc2ccccc2[nH]1)Cc1nc2ccccc2[nH]1)CN(Cc1nc2ccccc2[nH]1)Cc1nc2ccccc2[nH]1 | < 3.70 | 5.60 | 

SMILES | pEC50 | pIC50 | outcome
C=CC1(c2ccc(OC)cc2)OCCCO1 | < 3.70 | 4.01 | 
COC(=O)/C(=N\NC(N)=S)C(C(=O)OC)C(=O)C(=O)Nc1ccc(C)cc1 (stereo not drawn) | < 4.18 | < 4.18 | 
CCOCc1ccccc1C1(O)c2ccccc2Oc2ccccc21 | < 3.70 | 3.73 | 
Cc1cccc(Nc2cn(COCc3ccccc3)c(=O)[nH]c2=O)c1 | < 3.70 | 4.09 | 
Cc1ccc(S(=O)(=O)N2CCCSCCN(S(=O)(=O)c3ccc(C)cc3)CCCSCC2)cc1 | < 4.46 | < 4.46 | 
O=C1c2ccccc2-c2nnc3c(c21)-c1ccccc1C3 | < 3.70 | 4.03 | 
N#Cc1c(N2CCCC2)ncn(Cc2ccccc2)c1=S | < 3.70 | < 3.70 | 
CCCCC1(C(=O)OCC)OC12CCCCC2 (stereo not drawn) | < 3.70 | < 3.70 | 
CCN(CC)CCN(C)CCc1ccc(Br)cc1 | < 3.90 | 3.95 | 
O=c1[nH]c2[nH]c(-c3ccc(Br)cc3)cc2c2ccccc12 | < 3.70 | < 3.70 | 
O=S(=O)(O)c1cc(N=Nc2ccc(S(=O)(=O)c3ccc(N=Nc4cc(S(=O)(=O)O)c5cccnc5c4O)cc3)cc2)c(O)c2ncccc12 | 5.22 | 4.40 | 
CC1=NCCC[N-]CC[N-]CCCN=C1C.[Ni+2].[O-][Cl+3]([O-])([O-])O | < 3.70 | < 3.70 | 
N#C/C(=C\c1cccc(F)c1)C(=O)c1ccccc1 | < 4.40 | < 4.40 | 
CCOP(=O)(OCC)/C(C#N)=C/c1cn(C)cn1 | < 3.70 | < 3.70 | 
CC(=O)NC(CCCCN(Cc1ccccc1)C(=O)NCCCl)C(=O)NCc1ccccc1 (stereo not drawn) | < 3.28 | 3.45 | 
Cc1ccc2c(c1)C(=C(C#N)C#N)CCCS2(=O)=O | < 3.70 | < 3.70 | 
CC/C=C(\C(=C/CC)[N+](=O)[O-])[N+](=O)[O-] | < 3.70 | 5.48 | 
O=C1CC2CC(=O)CC2(C2CC=CC2)C1 (stereo not drawn) | < 3.61 | < 3.61 | 
CCOC(=O)/C(=C\N1C(=O)/C(=C\C(C)=C\c2ccccc2)SC1=S)C(=O)c1ccccc1 | 4.96 | 4.87 | 
CCOC(=O)CCC(NC(=O)c1ccc(Nc2nc3ccccc3nc2C(=O)OCC)s1)C(=O)OCC (stereo not drawn) | < 3.70 | < 3.70 | 

SMILES | pEC50 | pIC50 | outcome
Cc1ccc([P+](CCN2C(=O)c3ccccc3C2=O)(c2ccc(C)cc2)c2ccc(C)cc2)cc1 | < 3.70 | 5.00 | 
N#CC1(C#N)C2CCCCC23OC(=N)C1(C#N)C(c1ccccc1)O3 (stereo not drawn) | < 3.70 | 5.25 | 
COC(=O)C1=C(C)NC2(C)SC1C(C)C2C(=O)OC (stereo not drawn) | < 3.06 | 3.31 | 
CCOC(=O)c1ccc(CS(=O)c2ccc(N)cc2)c([N+](=O)[O-])c1 (stereo not drawn) | < 3.99 | 4.57 | 
Nc1nc2c(c(=O)[nH]1)C(c1ccc(Cl)cc1)C=C(c1ccccc1)N2 (stereo not drawn) | < 3.70 | 4.85 | 
NC(CSSCC(NC(=O)c1ccccc1)C(=O)O)C(=O)O (stereo not drawn) | < 3.70 | < 3.70 | 
O=C(NC/C(Br)=C/Br)Nc1cccc2ccccc12 | 3.83 | < 3.70 | 
CCCC(=O)OC1C(OC(=O)CCC)C(OC(=O)CCC)C(OC(=O)CCC)C(OC(=O)CCC)C1OC(=O)CCC (stereo not drawn) | < 3.38 | < 3.38 | 
c1ccc2c(c1)c1ccccc1n2-n1c2ccccc2c2ccccc21 | < 3.70 | 3.88 | 
CC1(C)O[C@H]2OC(CO)C(OS(C)(=O)=O)[C@H]2O1 (stereo partly drawn) | < 3.70 | < 3.70 | 
CC(C)(C)OC(=O)NC(Cc1ccc(OCc2ccccc2)cc1)C(=O)NC(CCCCNC(=O)OCc1ccccc1)C(=O)O (stereo not drawn) (Boc-Tyr(Bn)-Lys(Cbz)-OH; configuration not given here) | < 3.70 | 4.12 | 
CC1(C)CCC2=C(O1)C(=O)c1ccccc1C2=O | < 3.70 | 4.74 and 4.84 | 
C[n+]1cccc2ccc(OC(=O)c3ccccc3)cc21 |  |  | inactive
COc1ccc(-c2c(C#N)c(N)n(C3OC(COC(C)=O)C(OC(C)=O)C(OC(C)=O)C3OC(C)=O)c(=S)c2C#N)cc1 (stereo not drawn) | < 3.70 | 4.08 and 3.94 | 
O=C(Nc1cccc(C(F)(F)F)c1)c1cc(Br)cc(Br)c1O | < 3.70 | 5.82 | 
c1cncc(C2N3CCCCC3[C@@H]3c4[nH]c5ccccc5c4CCN23)c1 (stereo partly drawn) | < 4.01 | < 4.01 | 
CC(C)(C)N=NC(C)(C)N=C=O | < 3.60 | < 3.60 | 
CCCCCCc1cc2cc(-c3csc(-c4ccc(OC)cc4)n3)c(=O)oc2cc1O | < 3.70 | 5.04 | 
COC(=O)CN(CC(=O)NCCNC(=O)OC(C)(C)C)C1CCCCC1N(CC(=O)OC)CC(=O)OC (stereo not drawn) | < 3.70 | < 3.70 | 
